Reference: patent publication US20230190887A1, “TARGETING G3BP AGGREGATION TO PREVENT NEURODEGENERATION” (priority 2019, published 2023)

Legend:
E18 midbrain neurons = assay: MPP+-induced neurite degeneration of midbrain neurons; assay type: cell-based, rat; settings: DIV7 E18 midbrain neurons, 100 μM MPP+ 16-18 hours, with 10 μM peptide
Method: To test whether the triggering disassembly of stress granules would be protective in Parkinson's and Alzheimer's disease, the inventors employed 1-methyl-4-phenylpyridinium (MPP+)-induced and amyloid β (Aβ)-mediated neurotoxicity models. Rat embryonic day 18 (E18) midbrain neurons cultured for 7 days were treated for 16-18 hours with 100 μM MPP+, see FIGS. 1A and B, while E18 cortical neurons were treated with 1 μM Aβ oligomer, see FIGS. 2A-2B, with or without 10 μM G3BP1 190-208 or 168-189 peptide. As a control, the inventors used non-treated neurons.
FIG. 1: Cell permeable G3BP1 190-208 peptide rescues MPP+-induced degeneration of midbrain neurons. (A) Representative images for NF-labeled (white) DIV7 E18 midbrain neurons. DIV7 midbrain cultures were treated with 100 μM MPP+ (ii) or control (i) and […] 190-208 G3BP1 peptide (iv) or 168-189 control peptide (iii) [scale bar=100 μm]. (B) Quantification of neurite degeneration in midbrain neurons in control or 100 μM MPP+-treated neurons after addition of 190-208 G3BP1 or 168-189 control peptide. […] (N≥95 over 3 cultures; by one-way ANOVA with Tukey HSD post-hoc).

[1] = test system: G3BP1 aggregates in E12.5 motor neurons; assay: Endogenous G3BP1 aggregates in MPP+-treated motor neurons; assay type: cell-based, mouse; settings: MPP+ plus 10 μM peptide
Method: Previous studies have shown that, exposure of midbrain neurons results in formation of stress granules. To test whether treatment of motor neurons with mitotoxin MPP+ results in the formation of stress granules the inventors stained the MPP+-treated neurons for G3BP1 protein.
(A) Quantification of mitotoxin/neurotoxin MPP+-induced degeneration of DIV7 E12.5 motor neuron neurites after exposure of cultures to 100 μM MPP+ and either 10 μM 190-208 G3BP1 or 168-189 control peptide. As controls, neurons treated with solvents were used. (B) Representative images of G3BP1 (green) and NF-labeled (red) E12.5 motor neurons under control or after treatment with 100 μM MPP+ [scale bar=10 μm]. (C) distribution of sizes of endogenous G3BP1 aggregate per 100 μm neurite is shown as indicated bins from motor neurons cultures as treated in (B). (N≥80 neurites over three repetitions; by one-way ANOVA with Tukey HSD post-hoc). […] (D) Endogenous G3BP1 aggregate sizes per 100 μm neurite indicated as bins for motor neurons either untreated or treated with MPP+ alone or with addition of 10 μM 190-208 G3BP1 or 168-189 control peptide. […] (N≥90 over 3 cultures; by one-way ANOVA with Tukey HSD post-hoc)

[2] = test system: G3BP1 aggregates in midbrain neurons; assay: Endogenous G3BP1 aggregates in MPP+-treated midbrain neurons; assay type: cell-based, rat; settings: MPP+ plus peptide
Description: Given that the G3BP1 190-208 peptide prevents degeneration induced by treatment with neurotoxins such as MPP+ and Aβ oligomer and decreases G3BP1 aggregates formed due MPP+ and Aβ treatment.
(A) Size of endogenous G3BP1 aggregates per 100 μm of neurite is shown as indicated bins from midbrain cultures under control conditions and after treatment with MPP+alone or with 190-208 G3BP1 or 168-189 peptides. (B) Size distribution of endogenous G3BP1 aggregates per 100 μm of neurite is shown from cortical neurons treated with 1 μM Aβpeptide or with […] 190-208 G3BP1 or 168-189 control peptide. Non-treated neurons were used as a control. […] (N≥90 over 3 cultures; by two-way ANOVA with Tukey HSD post-hoc).

[3] = listed as 190-208 G3BP1 peptide

YGNKKNNNQNNN-VVEPEPEPEPEPEPEPVSE [G3BP1 190-208 peptide]
neurite degeneration (E18 midbrain neurons; listed as 190-208 peptide): significant decrease in MPP+-induced degeneration
neurite degeneration (E18 midbrain neurons; listed as G3BP1 190-208): prevented neurite degeneration
size of endogenous G3BP1 aggregates per 100 μm neurite [1]: decrease in the size of aggregates
size of endogenous G3BP1 aggregates per 100 μm neurite [1, 3]: decrease in the number of larger G3BP1 granules
size of endogenous G3BP1 aggregates per 100 μm of neurite [2]: decrease in the size of G3BP1 aggregates
size of endogenous G3BP1 aggregates per 100 μm of neurite [2, 3]: disassembly of G3BP1 granules
